{"source": "patent US9283244B2", "about": "“Treatment of cancer by inhibiting activity or expression of late SV-40 factor” (Virginia Commonwealth University, priority 2010, dated 2016)", "key": {"c-Met": {"biological_target": "T1, c-Met (Homo sapiens, UniProt P08581)", "T1 construct": "endogenous in cells; host or cells: HepG3 cells; LSF-17 clone of HepG3 (stably overexpresses LSF, not c-Met)", "T1 sequence (P08581 25-1390)": "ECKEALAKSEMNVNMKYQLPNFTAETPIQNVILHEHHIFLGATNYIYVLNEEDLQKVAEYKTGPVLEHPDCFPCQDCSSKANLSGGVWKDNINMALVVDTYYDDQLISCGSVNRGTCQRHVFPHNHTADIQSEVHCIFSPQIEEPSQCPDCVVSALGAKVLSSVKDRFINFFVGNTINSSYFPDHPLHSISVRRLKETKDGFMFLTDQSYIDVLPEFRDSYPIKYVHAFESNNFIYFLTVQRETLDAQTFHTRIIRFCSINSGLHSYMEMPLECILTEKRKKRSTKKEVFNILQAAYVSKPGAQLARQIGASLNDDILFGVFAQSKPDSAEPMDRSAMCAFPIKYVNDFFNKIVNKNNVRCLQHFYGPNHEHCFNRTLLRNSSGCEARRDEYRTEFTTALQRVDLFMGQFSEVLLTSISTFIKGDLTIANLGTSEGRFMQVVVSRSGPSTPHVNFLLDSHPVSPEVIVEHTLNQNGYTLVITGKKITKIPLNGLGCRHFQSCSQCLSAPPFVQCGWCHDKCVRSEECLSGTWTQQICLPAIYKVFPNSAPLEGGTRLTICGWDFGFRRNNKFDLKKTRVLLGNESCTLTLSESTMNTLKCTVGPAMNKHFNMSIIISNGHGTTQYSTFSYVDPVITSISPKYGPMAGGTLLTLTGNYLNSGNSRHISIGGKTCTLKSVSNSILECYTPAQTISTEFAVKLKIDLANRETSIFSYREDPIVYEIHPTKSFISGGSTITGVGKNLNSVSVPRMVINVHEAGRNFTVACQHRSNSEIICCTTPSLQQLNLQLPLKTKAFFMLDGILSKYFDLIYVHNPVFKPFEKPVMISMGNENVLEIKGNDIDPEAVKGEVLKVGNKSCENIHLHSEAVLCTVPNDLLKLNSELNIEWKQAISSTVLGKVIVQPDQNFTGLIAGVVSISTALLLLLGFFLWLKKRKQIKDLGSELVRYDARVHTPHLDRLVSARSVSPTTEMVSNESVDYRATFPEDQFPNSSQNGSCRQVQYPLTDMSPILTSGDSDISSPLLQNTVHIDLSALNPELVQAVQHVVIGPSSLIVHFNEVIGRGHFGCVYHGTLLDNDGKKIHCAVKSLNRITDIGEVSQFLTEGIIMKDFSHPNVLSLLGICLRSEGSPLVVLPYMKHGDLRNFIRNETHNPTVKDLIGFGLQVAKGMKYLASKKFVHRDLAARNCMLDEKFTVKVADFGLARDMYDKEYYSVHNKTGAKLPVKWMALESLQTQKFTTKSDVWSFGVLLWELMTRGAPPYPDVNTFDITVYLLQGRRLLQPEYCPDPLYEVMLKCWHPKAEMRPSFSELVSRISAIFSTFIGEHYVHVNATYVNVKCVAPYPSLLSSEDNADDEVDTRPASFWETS", "experiment": "Western blot of c-Met activation (p-c-Met) in HepG3 cells", "assay_type": "cell-based", "experimental": "FIGS. 10A-D. OPN activates c-Met. A. HepG3 cells were treated with OPN (100 ng/ml) for the indicated time points and p-c-Met and total c-Met levels were analyzed by Western blot analysis. B. Expression of OPN and p-c-Met was determined by immunohistochemical analysis in FFPE sections of normal liver and matched HCC. A representative figure is shown from one patient. C. Statistical correlation between OPN and phospho-c-Met levels in 50 human HCC patients analyzed by Pearson's test. D. Left panel: LSF-17consh-15 (Consh-15) is a clone of LSF-17 cells that stably expresses control scrambled shRNA and LSF-17-OPNsh-6 (OPNsh-6) and LSF-17-OPNsh-18 (OPNsh-18) are clones of LSF-17 cells stably expressing OPN shRNA. The expression of the indicated proteins was detected by Western blot analysis. Right panel, LSF-17 clone of HepG3 cells were treated with normal IgG (mouse and rabbit; Santa Cruz), anti-αvβ3 integrin antibody (mouse; Millipore) or anti-CD44 antibody (rabbit; Santa Cruz) at a concentration of 20 μg/ml for 24 h and the expression of the indicated proteins was detected by Western blot analysis.\n(§1) FIGS. 12A-F. Inhibition of CD44 and c-Met by SU11274 blocks LSF function. A. LSF-17 cells were treated with normal IgG or anti-CD44 antibody and then subjected to Matrigel invasion assay. (B, C) Cell viability (MTT) assay of LSF-17 (B) and QGY-7703 (C) cells treated with SU11274 (5 μM) for the indicated time period. (D, E) Matrigel invasion assays of LSF-17 (D) and QGY-7703 (E) cells treated with SU11274 (5 μM). For SU11274 removal, cells were treated with SU11274 for 24 h before seeding them in the invasion chamber in SU11274-free condition. For A-E, data represent mean±SEM. F. HepG3 cells were untreated or treated with OPN (100 ng/ml) and with SU11274 (5 μM) for 24 h and the expression of the indicated proteins were detected by Western blot analysis. Asterisk (*) represents statistically significant difference (p<0.05).\n(§2) Preparation of whole cell lysates and Western blot analyses were performed as described (5). The primary antibodies used were anti-LSF (1:2,000; mouse monoclonal; BD Biosciences), anti-pERK (1:2,000; rabbit polyclonal; Cell Signaling), anti-ERK (1:2,000; rabbit polyclonal; Cell Signaling), anti-pAKT (1:1,000; rabbit polyclonal; Cell Signaling) and anti-AKT (1:1,000; rabbit polyclonal; Cell Signaling). Blots were stripped and normalized by re-probing with anti-β-tubulin (1:1,000; mouse monoclona; Sigma).\nTo confirm the link between OPN and c-Met, HepG3 cells were treated with OPN (100 ng/ml) for 24 h in the presence or absence of SU11274. […] Treatment with OPN increased p-Akt/Akt ratio to 1.42 which was decreased to 0.63 upon SU11274 treatment."}, "Akt": {"test_system": "Akt", "experiment": "Western blot of Akt activation in HepG3 cells", "assay_type": "cell-based, human", "experimental": "as §1, §2\nTreatment with OPN increased p-Akt/Akt ratio to 1.42 which was decreased to 0.63 upon SU11274 treatment."}, "ERK": {"test_system": "ERK", "experiment": "Western blot of ERK activation in HepG3 cells", "assay_type": "cell-based, human", "settings": "24 h", "experimental": "as §1\nas §2, with “Sigma). […]” for “Sigma).”"}, "CD44 and c-Met": {"biological_target": "T2, CD44 and c-Met (Homo sapiens, UniProt P16070)", "T2 construct": "endogenous in cells; host or cells: HepG3 cells (lysates)", "T2 sequence (P16070 21-742)": "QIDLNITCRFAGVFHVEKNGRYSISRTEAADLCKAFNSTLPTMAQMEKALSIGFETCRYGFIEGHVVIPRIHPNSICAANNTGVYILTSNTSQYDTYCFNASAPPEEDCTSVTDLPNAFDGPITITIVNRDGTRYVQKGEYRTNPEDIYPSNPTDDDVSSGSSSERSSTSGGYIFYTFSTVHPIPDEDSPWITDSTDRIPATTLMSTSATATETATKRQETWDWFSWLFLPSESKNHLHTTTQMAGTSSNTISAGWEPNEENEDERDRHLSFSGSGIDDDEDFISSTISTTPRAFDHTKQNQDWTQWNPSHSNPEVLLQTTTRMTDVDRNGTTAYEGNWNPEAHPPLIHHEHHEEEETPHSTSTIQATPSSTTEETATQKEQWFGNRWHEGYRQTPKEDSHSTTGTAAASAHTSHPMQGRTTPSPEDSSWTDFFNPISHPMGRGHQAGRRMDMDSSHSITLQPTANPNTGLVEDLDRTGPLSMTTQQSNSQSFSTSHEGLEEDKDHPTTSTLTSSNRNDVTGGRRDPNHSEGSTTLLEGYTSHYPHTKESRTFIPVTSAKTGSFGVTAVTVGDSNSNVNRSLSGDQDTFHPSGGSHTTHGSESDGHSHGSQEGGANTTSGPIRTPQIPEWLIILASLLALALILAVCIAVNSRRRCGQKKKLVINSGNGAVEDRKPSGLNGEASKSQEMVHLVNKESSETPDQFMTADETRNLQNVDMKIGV", "T2 sequence (P08581 308-1390 partner limits assumed)": "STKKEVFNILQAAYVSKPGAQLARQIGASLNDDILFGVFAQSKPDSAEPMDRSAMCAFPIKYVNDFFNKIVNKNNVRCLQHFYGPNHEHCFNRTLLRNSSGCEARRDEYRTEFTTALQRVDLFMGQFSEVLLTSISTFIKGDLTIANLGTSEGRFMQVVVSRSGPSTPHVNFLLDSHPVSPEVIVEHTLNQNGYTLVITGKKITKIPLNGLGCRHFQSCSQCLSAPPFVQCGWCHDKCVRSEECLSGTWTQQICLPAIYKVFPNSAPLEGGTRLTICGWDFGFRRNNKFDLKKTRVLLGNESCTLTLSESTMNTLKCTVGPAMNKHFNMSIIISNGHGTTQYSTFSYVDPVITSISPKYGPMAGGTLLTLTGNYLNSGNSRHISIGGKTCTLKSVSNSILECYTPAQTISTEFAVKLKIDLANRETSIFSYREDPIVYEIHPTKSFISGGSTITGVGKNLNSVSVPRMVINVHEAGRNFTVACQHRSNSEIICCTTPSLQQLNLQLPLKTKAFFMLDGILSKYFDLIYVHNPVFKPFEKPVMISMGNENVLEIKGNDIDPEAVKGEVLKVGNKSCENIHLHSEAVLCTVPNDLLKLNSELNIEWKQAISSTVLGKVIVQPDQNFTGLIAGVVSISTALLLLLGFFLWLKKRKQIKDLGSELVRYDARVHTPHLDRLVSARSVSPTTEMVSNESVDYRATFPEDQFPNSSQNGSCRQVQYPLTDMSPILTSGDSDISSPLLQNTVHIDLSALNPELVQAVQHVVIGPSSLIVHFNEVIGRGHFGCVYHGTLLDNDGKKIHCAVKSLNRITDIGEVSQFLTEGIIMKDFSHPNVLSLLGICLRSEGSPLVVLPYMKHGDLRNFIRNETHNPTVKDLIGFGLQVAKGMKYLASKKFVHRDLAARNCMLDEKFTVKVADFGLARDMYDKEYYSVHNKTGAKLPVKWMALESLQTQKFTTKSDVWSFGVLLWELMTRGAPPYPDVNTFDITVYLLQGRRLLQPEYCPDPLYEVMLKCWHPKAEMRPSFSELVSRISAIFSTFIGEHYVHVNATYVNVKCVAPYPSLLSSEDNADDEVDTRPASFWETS", "T2 sequence (P08581 25-307 partner limits assumed)": "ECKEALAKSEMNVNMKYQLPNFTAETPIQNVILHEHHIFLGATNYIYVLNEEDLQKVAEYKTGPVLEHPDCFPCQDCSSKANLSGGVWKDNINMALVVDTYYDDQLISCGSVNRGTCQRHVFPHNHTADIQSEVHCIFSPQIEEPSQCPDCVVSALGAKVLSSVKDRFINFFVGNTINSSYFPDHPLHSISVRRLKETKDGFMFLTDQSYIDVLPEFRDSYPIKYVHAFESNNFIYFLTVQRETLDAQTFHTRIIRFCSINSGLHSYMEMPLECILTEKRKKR", "experiment": "Co-immunoprecipitation of CD44 and c-Met in HepG3 cells", "assay_type": "cell-based", "experimental": "FIGS. 11A-E. OPN facilitates c-Met activation via CD44 receptor. A. Left panel, HepG3 cells were cultured in serum-free conditions. Right panel, HepG3 cells were cultured in serum-containing medium and untreated or treated with OPN (100 ng/ml) for 24 h. Cell lysates were subjected to immunoprecipitation by anti-c-Met antibody and immunoblotting with anti-CD44, anti-[…] integrin and anti-c-Met antibodies. B. The culture conditions are the same as in A. Immunoprecipitation was done with anti-CD44 antibody and immunoblotting was done with anti-c-Met and anti-CD44 antibody. C. HepG3 cell were cultured in serum-free conditions and then untreated or treated with OPN (100 ng/ml) for 24 h. Immunoprecipitation was done with anti-CD44 antibody and immunoblotting was done with anti-p-c-Met or anti-CD44 antibodies. D. Lysates from LSF-17 and QGY-7703 cells were subjected to immunoprecipitation by anti-c-Met antibody and immunoblotting by anti-CD44, anti-αvβ3 integrin and anti-c-Met antibodies. E. Lysates from LSF-17 and QGY-7703 cells were subjected to immunoprecipitation by anti-CD44 antibody and immunoblotting by anti-c-Met, anti-p-c-Met and anti-CD44 antibodies. The bottom panel serves as inputs for D and E. IgG was used as a control in all the experiments.\nWe next explored the molecular mechanism of c-Met activation by OPN using co-immunoprecipitation analysis. […]"}, "QGY-7703 cells [1]": {"test_system": "QGY-7703 cells", "experiment": "Cell viability by standard MTT assay, QGY-7703 cells", "assay_type": "cell-based, human", "settings": "SU11274 5 μM", "experimental": "as §1\n(§3) FIGS. 13A-F. Genetic inhibition of c-Met by shRNA blocks LSF function. […] A. Expression of the indicated proteins was detected in the indicated cells by Western blot analysis. […] D. QGY-7703 cells were transfected with control scrambled siRNA (siCon) or c-Met siRNA (siMet) and cell viability was measured by MTT assay. […] F. The expression of the indicated proteins was detected in the indicated cells by Western blot analysis. […]\n(§4) Primary rat hepatocytes were isolated and cultured as described (19). […] Cell viability was determined by standard MTT assays as described (5). […]"}, "LSF-17 cells [2]": {"test_system": "LSF-17 cells", "experiment": "Cell viability by standard MTT assay, LSF-17 cells", "assay_type": "cell-based, human", "settings": "SU11274 5 μM", "experimental": "as §1, with “(p<0.05). Primary rat hepatocytes were isolated and cultured as described (19). SNU-423 cells were obtained from ATCC and cultured as instructed. HepG3, QGY-7703, Hep3B, HuH7, Focus and HEK-293 cells were cultured as described (20). Cell viability was determined by standard MTT assays as described (5). Colony formation, anchorage-independent growth in soft agar and matrigel invasion assays were performed exactly as described (5). […] LSF-17 cells and QGY-7703 cells were treated with the chemical inhibitor of c-Met, SU11274 (5 μM), and cell viability and Matrigel invasion was monitored. […]” for “(p<0.05).”"}, "QGY-7703 cells [3]": {"test_system": "QGY-7703 cells", "experiment": "Matrigel invasion assay, QGY-7703 cells", "assay_type": "cell-based, human", "experimental": "as §1, §3, §4"}, "LSF-17 cells [4]": {"test_system": "LSF-17 cells", "experiment": "Matrigel invasion assay, LSF-17 cells", "assay_type": "cell-based, human", "experimental": "FIGS. 8A-D. Inhibition of OPN abrogates LSF-induced tumorigenesis and metastasis. The indicated clones were subcutaneously implanted in athymic nude mice. A. Tumor volume and tumor weight were measured 3 weeks after implantation. B. Graphical representation of metastatic lung nodules in the animals injected with the LSF-17consh-15 and LSF-17-OPNsh-18 clones via tail vein. The data represent mean±SEM. Inset: H&E sections of lungs of animals injected with the indicated clones. C. Parental HepG3 cells were treated with conditioned media from Control-8 or LSF-17 clone of HepG3 cells and then subjected to matrigel invasion. D. Matrigel invasion assay using LSF17 clone of HepG3 cells in the presence of neutralizing antibodies. Integrin: anti-αvβ3 integrin antibody. […]\nFIGS. 12A-F. Inhibition of CD44 and c-Met by SU11274 blocks LSF function. […] F. HepG3 cells were untreated or treated with OPN (100 ng/ml) and with SU11274 (5 μM) for 24 h and the expression of the indicated proteins were detected by Western blot analysis. […]\nas §4\nWe next investigated the importance of c-Met activation in mediating LSF function. LSF-17 cells and QGY-7703 cells were treated with the chemical inhibitor of c-Met, SU11274 (5 μM), and cell viability and Matrigel invasion was monitored. […]"}, "parental HepG3 cells": {"test_system": "parental HepG3 cells", "experiment": "Cell viability, parental HepG3 cells", "assay_type": "cell-based, human", "settings": "SU11274 treatment; data not shown", "experimental": "Primary rat hepatocytes were isolated and cultured as described (19). SNU-423 cells were obtained from ATCC and cultured as instructed. HepG3, QGY-7703, Hep3B, HuH7, Focus and HEK-293 cells were cultured as described (20). Cell viability was determined by standard MTT assays as described (5). Colony formation, anchorage-independent growth in soft agar and matrigel invasion assays were performed exactly as described (5). We next investigated the importance of c-Met activation in mediating LSF function. LSF-17 cells and QGY-7703 cells were treated with the chemical inhibitor of c-Met, SU11274 (5 μM), and cell viability and Matrigel invasion was monitored. […] For invasion assay cells were treated with SU11274 for 24 h, a time point when no significant effect on cell viability was observed."}, "[5]": {"settings": "treated 24 h, then SU11274-free during invasion assay"}, "[6]": {"settings": "co-treatment with SU11274 5 μM, 24 h"}}, "data": [{"compound": "OPN: purified osteopontin, a secreted protein, added to cells at 100 ng/ml", "values": [{"measurement": "activation of c-Met", "setting": "c-Met; OPN 100 ng/ml, 24 h", "value": "significantly activated"}, {"measurement": "total c-Met level", "setting": "c-Met; OPN treatment", "value": "did not change"}, {"measurement": "activated c-Met level at 6 h post-treatment", "setting": "c-Met; purified OPN 100 ng/ml", "value": "remained higher than basal level"}, {"measurement": "time of peak level of c-Met activation post-treatment", "setting": "c-Met; purified OPN 100 ng/ml", "value": 30, "unit": "min"}, {"measurement": "activation of Akt", "setting": "Akt; OPN 100 ng/ml, 24 h", "value": "significantly activated"}, {"measurement": "p-Akt/Akt ratio", "setting": "Akt; OPN 100 ng/ml, 24 h, control group 0.58", "value": 1.42}, {"measurement": "activation of ERK", "setting": "ERK; OPN 100 ng/ml", "value": "significantly activated"}, {"measurement": "binding affinity between c-Met and CD44", "setting": "CD44 and c-Met; serum-containing culture, OPN 100 ng/ml", "value": "did not affect the binding affinity"}, {"measurement": "association between CD44 and phospho-c-Met", "setting": "CD44 and c-Met; serum-free conditions, OPN 100 ng/ml 24 h", "value": "significantly increased"}]}, {"compound": "Cc1[nH]c(/C=C2\\C(=O)Nc3ccc(S(=O)(=O)N(C)c4cccc(Cl)c4)cc32)c(C)c1C(=O)N1CCN(C)CC1", "note": "[SU11274]", "values": [{"measurement": "cell viability (MTT)", "setting": "QGY-7703 cells [1]", "value": "significantly decreased"}, {"measurement": "cell viability (MTT)", "setting": "LSF-17 cells [2]", "value": "significantly decreased"}, {"measurement": "Matrigel invasion", "setting": "QGY-7703 cells [3]; SU11274 5 μM, 24 h", "value": "significantly inhibited"}, {"measurement": "Matrigel invasion after removal of SU11274", "setting": "QGY-7703 cells [3]; [5]", "value": "significantly rescued the cells from inhibition of invasion"}, {"measurement": "Matrigel invasion", "setting": "LSF-17 cells [4]; SU11274 5 μM, 24 h", "value": "significantly inhibited"}, {"measurement": "Matrigel invasion after removal of SU11274", "setting": "LSF-17 cells [4]; [5]", "value": "significantly rescued the cells from inhibition of invasion"}, {"measurement": "viability of parental HepG3 cells", "setting": "parental HepG3 cells", "value": "did not affect the viability"}, {"measurement": "inhibition of basal and OPN-induced activation of c-Met", "setting": "c-Met; [6]", "value": "significant inhibition"}, {"measurement": "p-Akt/Akt ratio", "setting": "Akt; OPN 100 ng/ml plus SU11274, 24 h", "value": 0.63}, {"measurement": "p-Akt/Akt ratio", "setting": "Akt; SU11274 alone (basal), control group 0.58", "value": 0.05}, {"measurement": "inhibition of basal and OPN-induced activation of Akt", "setting": "Akt; [6]", "value": "significant inhibition"}, {"measurement": "inhibition of basal and OPN-induced activation of ERK", "setting": "ERK; SU11274 5 μM", "value": "partial inhibition"}]}]}
